Source: PubChem BioAssay AID1919008 (Molecular Pharmacology Branch, DTP, NCI, 2023)

Test system: DMS-114 complex spheroids with HUVEC/MSC, growth % test/control
Assay: Anticancer human tumor DMS-114 cell line growth inhibition [AhR];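 further: spheroids exposed to agents for 7 days before readout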;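 on viability, T/C: 100% = DMSO vehicle control wells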
Details: for IC50: curve of first compound; for viability, T/C: stronger effect = lower value
How it was run: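 Agents were dosed in half-log steps down from roughly clinical Cmax, or from 10 microM where Cmax was unknown, alone and with AhR antagonists. Read-out: percent test/control growth of tumor spheroids containing HUVEC and MSC stromal cells.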

[1] = second compound 0.1 µM, first compound 0.0316 µM
[2] = second compound 0.1 µM, first compound 0.1 µM
[3] = second compound 0.1 µM, first compound 0.316 µM
[4] = second compound 0.1 µM, first compound 1 µM
[5] = second compound 0.1 µM, first compound 3.16 µM
[6] = second compound 0.1 µM, first compound 10 µM
[7] = second compound 0.316 µM, first compound 0.0316 µM
[8] = second compound 0.316 µM, first compound 0.1 µM
[9] = second compound 0.316 µM, first compound 0.316 µM
[10] = second compound 0.316 µM, first compound 1 µM
[11] = second compound 0.316 µM, first compound 3.16 µM
[12] = second compound 0.316 µM, first compound 10 µM
[13] = second compound 1 µM, first compound 0.0316 µM
[14] = second compound 1 µM, first compound 0.1 µM
[15] = second compound 1 µM, first compound 0.316 µM
[16] = second compound 1 µM, first compound 1 µM
[17] = second compound 1 µM, first compound 3.16 µM
[18] = second compound 1 µM, first compound 10 µM
[19] = second compound 3.16 µM, first compound 0.0316 µM
[20] = second compound 3.16 µM, first compound 0.1 µM
[21] = second compound 3.16 µM, first compound 0.316 µM
[22] = second compound 3.16 µM, first compound 1 µM
[23] = second compound 3.16 µM, first compound 3.16 µM
[24] = second compound 3.16 µM, first compound 10 µM
[25] = second compound 10 µM, first compound 0.0316 µM
[26] = second compound 10 µM, first compound 0.1 µM
[27] = second compound 10 µM, first compound 0.316 µM
[28] = second compound 10 µM, first compound 1 µM
[29] = second compound 10 µM, first compound 3.16 µM
[30] = second compound 10 µM, first compound 10 µM

With `CC(C)CC(NC(=O)C(Cc1ccccc1)NC(=O)c1cnccn1)B(O)O` (stereo not given) + Cc1ccccc1N=Nc1ccc(NC(=O)c2ccnn2C)c(C)c1 the IC50 (second compound 0.1 µM) was 5.5 nM, the IC50 (second compound 0.316 µM) was 6.01 nM and the IC50 (second compound 1 µM) was 5.87 nM. The IC50 (second compound 3.16 µM) was 6.14 nM, the IC50 (second compound 10 µM) was 5.59 nM and the viability, T/C (second compound 0.1 µM, first compound 0.000949 µM) was 90.3%. It also gave a viability, T/C (second compound 0.1 µM, first compound 0.003 µM) of 93.9%, a viability, T/C (second compound 0.1 µM, first compound 0.00949 µM) of 12.1% and a viability, T/C (second compound 0.1 µM, first compound 0.03 µM) of 0.2%. The viability, T/C (second compound 0.1 µM, first compound 0.0949 µM) was 0.1%, the viability, T/C (second compound 0.1 µM, first compound 0.3 µM) was 0.22% and the viability, T/C (second compound 0.316 µM, first compound 0.000949 µM) was 101%. It also gave a viability, T/C (second compound 0.316 µM, first compound 0.003 µM) of 99.9%, a viability, T/C (second compound 0.316 µM, first compound 0.00949 µM) of 17.2% and a viability, T/C (second compound 0.316 µM, first compound 0.03 µM) of 0.18%. The viability, T/C (second compound 0.316 µM, first compound 0.0949 µM) was 0.05%, the viability, T/C (second compound 0.316 µM, first compound 0.3 µM) was 0.48% and the viability, T/C (second compound 1 µM, first compound 0.000949 µM) was 94.7%. It also gave a viability, T/C (second compound 1 µM, first compound 0.003 µM) of 94.6%, a viability, T/C (second compound 1 µM, first compound 0.00949 µM) of 18.1% and a viability, T/C (second compound 1 µM, first compound 0.03 µM) of 0.41%. For the same compound, the viability, T/C (second compound 1 µM, first compound 0.0949 µM) was 0.28%, the viability, T/C (second compound 1 µM, first compound 0.3 µM) was 0.18% and the viability, T/C (second compound 3.16 µM, first compound 0.000949 µM) was 89.9%. It also gave a viability, T/C (second compound 3.16 µM, first compound 0.003 µM) of 97.8%, a viability, T/C (second compound 3.16 µM, first compound 0.00949 µM) of 23.4% and a viability, T/C (second compound 3.16 µM, first compound 0.03 µM) of 0.28%. The viability, T/C (second compound 3.16 µM, first compound 0.0949 µM) was 1.08%, the viability, T/C (second compound 3.16 µM, first compound 0.3 µM) was 0.24% and the viability, T/C (second compound 10 µM, first compound 0.000949 µM) was 94.3%. For the same compound, the viability, T/C (second compound 10 µM, first compound 0.003 µM) was 88.7%, the viability, T/C (second compound 10 µM, first compound 0.00949 µM) was 17.1% and the viability, T/C (second compound 10 µM, first compound 0.03 µM) was 0.65%. It also gave a viability, T/C (second compound 10 µM, first compound 0.0949 µM) of 0.6% and a viability, T/C (second compound 10 µM, first compound 0.3 µM) of 0.32%.
Work on `COc1cc(Nc2ncc3c(n2)-c2ccc(Cl)cc2C(c2c(F)cccc2OC)=NC3)ccc1C(=O)O` + Cc1ccccc1N=Nc1ccc(NC(=O)c2ccnn2C)c(C)c1 yielded an IC50 (second compound 0.1 µM) greater than 10000 nM, an IC50 (second compound 0.316 µM) greater than 10000 nM and an IC50 (second compound 1 µM) greater than 10000 nM. For the same compound, the IC50 (second compound 3.16 µM) was greater than 10000 nM, the IC50 (second compound 10 µM) was less than 31.6 nM and the viability, T/C [1] was 63%. For the same compound, the viability, T/C [2] was 57.5%, the viability, T/C [3] was 106% and the viability, T/C [4] was 108%. For the same compound, the viability, T/C [5] was 123%, the viability, T/C [6] was 107% and the viability, T/C [7] was 55%. For the same compound, the viability, T/C [8] was 56.8%, the viability, T/C [9] was 108% and the viability, T/C [10] was 115%. For the same compound, the viability, T/C [11] was 111%, the viability, T/C [12] was 98.4% and the viability, T/C [13] was 58.1%. For the same compound, the viability, T/C [14] was 53.3%, the viability, T/C [15] was 104% and the viability, T/C [16] was 107%. For the same compound, the viability, T/C [17] was 102%, the viability, T/C [18] was 106% and the viability, T/C [19] was 52.3%. The viability, T/C [20] was 50.6%, the viability, T/C [21] was 103% and the viability, T/C [22] was 95.8%. It also gave a viability, T/C [23] of 106%, a viability, T/C [24] of 95.8% and a viability, T/C [25] of 44.7%. For the same compound, the viability, T/C [26] was 42%, the viability, T/C [27] was 84.7% and the viability, T/C [28] was 87.1%. For the same compound, the viability, T/C [29] was 85% and the viability, T/C [30] was 76.3%.
Work on `Cn1ncnc1C1c2n[nH]c(=O)c3cc(F)cc(c23)NC1c1ccc(F)cc1` (stereo not given) + Cc1ccccc1N=Nc1ccc(NC(=O)c2ccnn2C)c(C)c1 yielded an IC50 (second compound 0.1 µM) greater than 100 nM, an IC50 (second compound 0.316 µM) greater than 100 nM and an IC50 (second compound 1 µM) greater than 100 nM. The IC50 (second compound 3.16 µM) was greater than 100 nM, the IC50 (second compound 10 µM) was greater than 100 nM and the viability, T/C (second compound 0.1 µM, first compound 0.000316 µM) was 118%. For the same compound, the viability, T/C (second compound 0.1 µM, first compound 0.001 µM) was 101%, the viability, T/C (second compound 0.1 µM, first compound 0.00316 µM) was 111% and the viability, T/C (second compound 0.1 µM, first compound 0.01 µM) was 110%. It also gave a viability, T/C [1] of 120%, a viability, T/C [2] of 107% and a viability, T/C (second compound 0.316 µM, first compound 0.000316 µM) of 104%. The viability, T/C (second compound 0.316 µM, first compound 0.001 µM) was 105%, the viability, T/C (second compound 0.316 µM, first compound 0.00316 µM) was 104% and the viability, T/C (second compound 0.316 µM, first compound 0.01 µM) was 113%. For the same compound, the viability, T/C [7] was 104%, the viability, T/C [8] was 112% and the viability, T/C (second compound 1 µM, first compound 0.000316 µM) was 103%. For the same compound, the viability, T/C (second compound 1 µM, first compound 0.001 µM) was 112%, the viability, T/C (second compound 1 µM, first compound 0.00316 µM) was 108% and the viability, T/C (second compound 1 µM, first compound 0.01 µM) was 101%. For the same compound, the viability, T/C [13] was 111%, the viability, T/C [14] was 113% and the viability, T/C (second compound 3.16 µM, first compound 0.000316 µM) was 96%. For the same compound, the viability, T/C (second compound 3.16 µM, first compound 0.001 µM) was 104%, the viability, T/C (second compound 3.16 µM, first compound 0.00316 µM) was 102% and the viability, T/C (second compound 3.16 µM, first compound 0.01 µM) was 111%. The viability, T/C [19] was 98.3%, the viability, T/C [20] was 104% and the viability, T/C (second compound 10 µM, first compound 0.000316 µM) was 93.5%. The viability, T/C (second compound 10 µM, first compound 0.001 µM) was 93.3%, the viability, T/C (second compound 10 µM, first compound 0.00316 µM) was 90% and the viability, T/C (second compound 10 µM, first compound 0.01 µM) was 96.2%. The viability, T/C [25] was 95.1% and the viability, T/C [26] was 95%.
Work on `NS(=O)(=O)OCC1CC(n2ccc3c(NC4CCc5ccccc54)ncnc32)CC1O` (stereo not given) + Cc1ccccc1N=Nc1ccc(NC(=O)c2ccnn2C)c(C)c1 yielded an IC50 (second compound 0.1 µM) of 229 nM, an IC50 (second compound 0.316 µM) of 203 nM and an IC50 (second compound 1 µM) of 201 nM. For the same compound, the IC50 (second compound 3.16 µM) was 228 nM, the IC50 (second compound 10 µM) was 215 nM and the viability, T/C [1] was 137%. It also gave a viability, T/C [2] of 84.8%, a viability, T/C [3] of 37% and a viability, T/C [4] of 18.4%. For the same compound, the viability, T/C [5] was 19%, the viability, T/C [6] was 16.1% and the viability, T/C [7] was 113%. The viability, T/C [8] was 73.9%, the viability, T/C [9] was 34.3% and the viability, T/C [10] was 22.8%. The viability, T/C [11] was 17.2%, the viability, T/C [12] was 16.3% and the viability, T/C [13] was 119%. It also gave a viability, T/C [14] of 76.7%, a viability, T/C [15] of 32% and a viability, T/C [16] of 23.4%. For the same compound, the viability, T/C [17] was 21.6%, the viability, T/C [18] was 17.3% and the viability, T/C [19] was 128%. For the same compound, the viability, T/C [20] was 80.9%, the viability, T/C [21] was 37.6% and the viability, T/C [22] was 24.1%. The viability, T/C [23] was 19.9%, the viability, T/C [24] was 21.3% and the viability, T/C [25] was 86.5%. It also gave a viability, T/C [26] of 77.5%, a viability, T/C [27] of 35.9% and a viability, T/C [28] of 25.7%. It also gave a viability, T/C [29] of 22.4% and a viability, T/C [30] of 20.1%.
In the case of `O=C(C=Cc1cccc(S(=O)(=O)Nc2ccccc2)c1)NO` + Cc1ccccc1N=Nc1ccc(NC(=O)c2ccnn2C)c(C)c1, the IC50 (second compound 0.1 µM) is reported as 1850 nM, the IC50 (second compound 0.316 µM) is reported as 1720 nM and the IC50 (second compound 1 µM) is reported as 1750 nM. For the same compound, the IC50 (second compound 3.16 µM) was 1660 nM, the IC50 (second compound 10 µM) was 1670 nM and the viability, T/C [1] was 101%. It also gave a viability, T/C [2] of 101%, a viability, T/C [3] of 96.1% and a viability, T/C [4] of 74.5%. For the same compound, the viability, T/C [5] was 27.4%, the viability, T/C [6] was 30.3% and the viability, T/C [7] was 96.6%. The viability, T/C [8] was 95.2%, the viability, T/C [9] was 101% and the viability, T/C [10] was 68.8%. For the same compound, the viability, T/C [11] was 30.1%, the viability, T/C [12] was 27.4% and the viability, T/C [13] was 99%. For the same compound, the viability, T/C [14] was 102%, the viability, T/C [15] was 94.7% and the viability, T/C [16] was 71.1%. For the same compound, the viability, T/C [17] was 26.4%, the viability, T/C [18] was 29.1% and the viability, T/C [19] was 101%. The viability, T/C [20] was 97.5%, the viability, T/C [21] was 91.2% and the viability, T/C [22] was 66%. For the same compound, the viability, T/C [23] was 28.7%, the viability, T/C [24] was 28.7% and the viability, T/C [25] was 88.7%. The viability, T/C [26] was 96.1%, the viability, T/C [27] was 86.5% and the viability, T/C [28] was 65.8%. The viability, T/C [29] was 29.5% and the viability, T/C [30] was 29.9%.
